According to ChEMBL document CHEMBL2073914, “Are MDCK cells transfected with the human MRP2 gene a good model of the human intestinal mucosa?” (Pharm Res, 2002):

How the values were obtained:
Format in all cases: functional, cell-based
[1] = biological target: T1, ATP-binding cassette sub-family C member 2 (Homo sapiens, UniProt Q92887); test: TP_TRANSPORTER: inhibition of Vinblastine transepithelial transport (basal to apical)(GF120918: 12 uM) in MRP2-expressing MDCK cells
[2] = biological target: T1, ATP-binding cassette sub-family C member 2; test: TP_TRANSPORTER: inhibition of Vinblastine transepithelial transport (basal to apical) in MRP2-expressing MDCK cells
[3] = biological target: T1, ATP-binding cassette sub-family C member 2; test: TP_TRANSPORTER: inhibition of Vinblastine transepithelial transport (basal to apical)(Quinidine: 15 uM) in MRP2-expressing MDCK cells

T1 sequence (Q92887 whole entry): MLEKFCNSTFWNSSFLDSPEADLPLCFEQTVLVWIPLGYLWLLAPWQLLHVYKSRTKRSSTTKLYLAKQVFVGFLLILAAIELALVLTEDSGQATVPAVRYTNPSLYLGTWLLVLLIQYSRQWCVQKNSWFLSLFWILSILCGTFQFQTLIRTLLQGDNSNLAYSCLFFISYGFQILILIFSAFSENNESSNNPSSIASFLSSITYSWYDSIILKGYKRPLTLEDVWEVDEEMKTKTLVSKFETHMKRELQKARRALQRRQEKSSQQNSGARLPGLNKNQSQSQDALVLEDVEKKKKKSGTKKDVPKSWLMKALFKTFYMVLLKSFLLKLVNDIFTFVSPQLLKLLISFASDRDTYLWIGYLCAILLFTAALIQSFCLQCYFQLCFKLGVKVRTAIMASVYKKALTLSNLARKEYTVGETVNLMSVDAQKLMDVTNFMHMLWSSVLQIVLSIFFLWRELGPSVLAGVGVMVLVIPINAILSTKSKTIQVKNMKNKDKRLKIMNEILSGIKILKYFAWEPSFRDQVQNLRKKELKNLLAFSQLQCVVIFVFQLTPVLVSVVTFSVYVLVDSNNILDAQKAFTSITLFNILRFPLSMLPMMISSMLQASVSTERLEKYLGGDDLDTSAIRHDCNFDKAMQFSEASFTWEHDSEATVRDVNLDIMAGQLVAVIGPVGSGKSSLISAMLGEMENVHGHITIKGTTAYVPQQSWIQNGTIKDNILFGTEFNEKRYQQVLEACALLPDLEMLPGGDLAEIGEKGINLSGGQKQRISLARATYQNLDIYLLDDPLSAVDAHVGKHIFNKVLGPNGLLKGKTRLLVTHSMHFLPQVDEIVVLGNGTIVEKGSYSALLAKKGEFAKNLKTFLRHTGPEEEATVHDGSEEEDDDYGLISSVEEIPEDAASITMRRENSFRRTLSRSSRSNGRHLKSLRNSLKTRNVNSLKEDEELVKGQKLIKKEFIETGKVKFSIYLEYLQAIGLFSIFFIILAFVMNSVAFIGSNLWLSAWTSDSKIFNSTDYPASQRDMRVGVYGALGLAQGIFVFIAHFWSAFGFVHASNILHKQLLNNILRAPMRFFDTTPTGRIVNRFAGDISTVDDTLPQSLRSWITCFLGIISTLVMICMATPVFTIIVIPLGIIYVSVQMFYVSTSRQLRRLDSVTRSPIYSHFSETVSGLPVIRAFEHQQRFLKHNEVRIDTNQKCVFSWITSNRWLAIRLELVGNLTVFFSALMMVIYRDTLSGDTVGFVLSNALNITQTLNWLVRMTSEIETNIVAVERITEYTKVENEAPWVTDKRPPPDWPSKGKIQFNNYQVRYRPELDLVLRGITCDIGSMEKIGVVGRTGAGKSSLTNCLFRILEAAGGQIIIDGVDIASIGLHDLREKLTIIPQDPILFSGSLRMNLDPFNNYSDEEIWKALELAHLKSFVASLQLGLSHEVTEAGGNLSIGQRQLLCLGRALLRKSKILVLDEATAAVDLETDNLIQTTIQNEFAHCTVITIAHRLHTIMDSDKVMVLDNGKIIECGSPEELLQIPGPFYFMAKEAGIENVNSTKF

SMILES	Ki [2] [µM]	other results
COc1cc2c(cc1OC)CN(CCc1ccc(NC(=O)c3cccc4c(=O)c5cccc(OC)c5[nH]c34)cc1)CC2.Cl [ELACRIDAR HYDROCHLORIDE]		Ki [1]: is not an inhibitor [Ki=No inhibition]
COc1cccc2c1C(=O)c1c(O)c3c(c(O)c1C2=O)C[C@@](O)(C(C)=O)C[C@@H]3O[C@H]1C[C@H](N)[C@H](O)[C@H](C)O1 [DAUNORUBICIN]	49.4	
C=C[C@H]1CN2CC[C@H]1C[C@@H]2[C@@H](O)c1ccnc2ccc(OC)cc12 [QUINIDINE]		Ki [3]: is not an inhibitor [Ki=No inhibition]
COc1cc([C@@H]2c3cc4c(cc3[C@@H](O[C@@H]3O[C@@H]5CO[C@@H](C)O[C@H]5[C@H](O)[C@H]3O)[C@H]3COC(=O)[C@H]23)OCO4)cc(OC)c1O [ETOPOSIDE]	756	

Further lines, with some results ahead:

Ki [2] [µM]	SMILES	other results
802	CC[C@]1(O)C[C@H]2CN(CCc3c([nH]c4ccccc34)[C@@](C(=O)OC)(c3cc4c(cc3OC)N(C=O)[C@H]3[C@@](O)(C(=O)OC)[C@H](OC(C)=O)[C@]5(CC)C=CCN6CC[C@]43[C@@H]65)C2)C1 [VINCRISTINE]	
26.4	CN(C)C(=O)CCSC(SCCC(=O)O)c1cccc(/C=C/c2ccc3ccc(Cl)cc3n2)c1 (configuration not stated) [MK-571]	
295	COC(=O)[C@H]1[C@H]2C[C@@H]3c4[nH]c5cc(OC)ccc5c4CCN3C[C@H]2C[C@@H](OC(=O)c2cc(OC)c(OC)c(OC)c2)[C@@H]1OC [RESERPINE]	
